According to patent publication US6737383B1, “Herbicidal oxadiazolidines” (priority 1999, dated 2004):

What was measured:
[1] = tested on: giant foxtail; test: Test B pre/postemergence giant foxtail; assay type: in vivo, Setaria faberii; conditions: for Giant foxtail plant response rating: scale of 0 to 10 where 0 is no effect and 10 is complete control
Procedure, shortened: (§1)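 Test chemicals in a non-phytotoxic solvent mixture with surfactant were sprayed preemergence onto planted seeds and postemergence onto plants 2 to 18 cm tall (1- to 4-leaf stage). After twelve to sixteen days in a greenhouse, injury was visually rated against untreated controls from 0 (no effect) to 10 (complete control).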

[2] = tested on: soybean; test: Test B pre/postemergence soybean; assay type: in vivo, Glycine max; conditions: for Soybean plant response rating: scale of 0 to 10 where 0 is no effect and 10 is complete control
Procedure, shortened: as §1

[3] = tested on: Green foxtail; test: Test D green foxtail; assay type: in vivo; conditions: Rate 250 g/ha; Postemergence; 0 to 100 scale
[4] = tested on: large crabgrass; test: Test D large crabgrass; assay type: in vivo, Digitaria sanguinalis; conditions: Postemergence, 0 to 100 scale
[5] = tested on: Spanishneedles; test: Test D Spanishneedles; assay type: in vivo, Bidens bipinnata; conditions: Postemergence, 0 to 100 scale
[6] = tested on: Green foxtail; test: Test D green foxtail; assay type: in vivo; conditions: Postemergence, 0 to 100 scale, 0 no injury, 100 complete control
[7] = tested on: bermuda-grass; test: Test D bermudagrass; assay type: in vivo, Cynodon dactylon; conditions: Postemergence, 0 to 100 scale
[8] = tested on: sugar beet; test: Test B pre/postemergence sugar beet; assay type: in vivo, Beta vulgaris; conditions: for Sugarbeets plant response rating: scale of 0 to 10 where 0 is no effect and 10 is complete control
Procedure, shortened: as §1

[9] = tested on: common groundsel; test: Test D common groundsel; assay type: in vivo, Senecio vulgaris; conditions: Postemergence, 0 to 100 scale
[10] = tested on: pitted morningglory; test: Test D pitted morningglory; assay type: in vivo, Ipomoea lacunosa; conditions: Postemergence, 0 to 100 scale
[11] = tested on: dallisgrass; test: Test D dallisgrass; assay type: in vivo, Paspalum dilatatum; conditions: Postemergence, 0 to 100 scale
[12] = tested on: crabgrass; test: Test B pre/postemergence crabgrass; assay type: in vivo, Digitaria sanguinalis; conditions: for Crabgrass plant response rating: scale of 0 to 10 where 0 is no effect and 10 is complete control
Procedure, shortened: as §1

[13] = tested on: Alexandergrass; test: Test D Alexandergrass; assay type: in vivo, Brachiaria plantaginea; conditions: Postemergence, 0 to 100 scale
[14] = tested on: Green foxtail; test: Test D green foxtail; assay type: in vivo; conditions: Rate 250 g/ha; Postemergence; 0 to 100 scale; remark: listed apart in the source
[15] = Postemergence, Rate 125 g/ha, scale 0 to 10, 0 is no effect, 10 is complete control
[16] = Preemergence, Rate 62 g/ha, scale 0 to 10 (0 no effect, 10 complete control)
[17] = Rate 500 g/ha, Postemergence, scale 0 to 10, 0 no effect, 10 complete control
[18] = Rate 16 g/ha, 0 no injury, 100 complete control
[19] = Rate 32 g/ha, 0 no injury, 100 complete control
[20] = Rate 64 g/ha, 0 no injury, 100 complete control
[21] = Rate 125 g/ha, 0 no injury, 100 complete control

Q: For CCC(CC)n1c(=O)on(C(=O)N(c2ccc(F)cc2)C(C)C)c1=O [Compound 358], which “Plant response rating, Giant foxtail” value [1, 15] is on record?
A: 8

Q: What about the “Plant response rating, Giant foxtail” value [1, 16] of the same compound?
A: 10

Q: What about the “Giant foxtail plant response rating (0 to 10 scale)” value ([1]; Preemergence, Rate 125 g/ha) of the same compound?
A: 10

Q: And the “Giant foxtail plant response rating” value ([1]; Preemergence, Rate 250 g/ha)?
A: 10

Q: What about the “Giant foxtail plant response rating” value ([1]; Preemergence, Rate 500 g/ha) of the same compound?
A: 10

Q: What about the “Giant foxtail plant response rating” value ([1]; Rate 62 g/ha, Postemergence) of the same compound?
A: 3

Q: And the “Plant response rating, Giant foxtail” value [1, 17]?
A: 8

Q: And the “Plant response rating, Soybean” value [2, 15]?
A: 4

Q: And the “Plant response rating, Soybean” value [2, 16]?
A: 0

Q: What about the “Soybean plant response rating (0 to 10 scale)” value ([2]; Preemergence, Rate 125 g/ha) of the same compound?
A: 0

Q: And the “Soybean plant response rating” value ([2]; Preemergence, Rate 250 g/ha)?
A: 0

Q: What about the “Soybean plant response rating” value ([2]; Preemergence, Rate 500 g/ha) of the same compound?
A: 1

Q: What about the “Soybean plant response rating” value ([2]; Rate 62 g/ha, Postemergence) of the same compound?
A: 4

Q: What about the “Plant response rating, Soybean” value [2, 17] of the same compound?
A: 7

Q: And the “Plant response rating, Green foxtail” value [3]?
A: 100

Q: What about the “Plant response rating, Large crabgrass” value [4, 18] of the same compound?
A: 0

Q: And the “Plant response rating, Large crabgrass” value [4, 19]?
A: 40

Q: What about the “Plant response rating, Large crabgrass” value [4, 20] of the same compound?
A: 100

Q: What about the “Plant response rating, Large crabgrass” value [4, 21] of the same compound?
A: 100

Q: What about the “Plant response rating, Large crabgrass” value ([4]; Rate 250 g/ha) of the same compound?
A: 100

Q: And the “Plant response rating, Spanishneedles” value [5, 18]?
A: 0

Q: And the “Plant response rating, Spanishneedles” value [5, 19]?
A: 0

Q: And the “Spanishneedles plant response rating” value [5, 20]?
A: 0

Q: And the “Spanishneedles plant response rating” value [5, 21]?
A: 0

Q: And the “Plant response rating, Spanishneedles” value ([5]; Rate 250 g/ha)?
A: 0

Q: And the “Plant response rating, Green foxtail” value ([6]; Rate 16 g/ha)?
A: 0

Q: What about the “Plant response rating, Green foxtail” value ([6]; Rate 32 g/ha) of the same compound?
A: 30

Q: And the “Plant response rating, Bermudagrass” value [7, 18]?
A: 0

Q: What about the “Plant response rating, Bermudagrass” value [7, 19] of the same compound?
A: 90

Q: And the “Plant response rating, Bermudagrass” value [7, 20]?
A: 100

Q: And the “Plant response rating, Bermudagrass” value [7, 21]?
A: 100

Q: And the “Plant response rating, Bermudagrass” value ([7]; Rate 250 g/ha)?
A: 100

Q: And the “Plant response rating, Sugarbeets” value [8, 15]?
A: 0

Q: What about the “Plant response rating, Sugarbeets” value [8, 16] of the same compound?
A: 0

Q: And the “Sugarbeets plant response rating (0 to 10 scale)” value ([8]; Preemergence, Rate 125 g/ha)?
A: 1

Q: What about the “Sugarbeets plant response rating” value ([8]; Preemergence, Rate 250 g/ha) of the same compound?
A: 3

Q: What about the “Sugarbeets plant response rating” value ([8]; Preemergence, Rate 500 g/ha) of the same compound?
A: 3

Q: What about the “Sugarbeets plant response rating” value ([8]; Rate 62 g/ha, Postemergence) of the same compound?
A: 0

Q: And the “Plant response rating, Sugarbeets” value [8, 17]?
A: 4

Q: And the “Plant response rating, Com. groundsel” value [9, 18]?
A: 0

Q: What about the “Plant response rating, Com. groundsel” value [9, 19] of the same compound?
A: 0

Q: What about the “Plant response rating, Com. groundsel” value [9, 20] of the same compound?
A: 0

Q: And the “Plant response rating, Com. groundsel” value ([9]; Rate 250 g/ha)?
A: 40

Q: What about the “Plant response rating, P. morninglory” value [10, 18] of the same compound?
A: 0

Q: What about the “Plant response rating, P. morninglory” value [10, 19] of the same compound?
A: 0

Q: What about the “Plant response rating, P. morninglory” value [10, 20] of the same compound?
A: 0

Q: And the “Plant response rating, P. morninglory” value [10, 21]?
A: 0

Q: And the “Plant response rating, P. morninglory” value ([10]; Rate 250 g/ha)?
A: 0

Q: And the “Plant response rating, Dallisgrass” value [11, 18]?
A: 0

Q: And the “Plant response rating, Dallisgrass” value [11, 19]?
A: 30

Q: What about the “Plant response rating, Dallisgrass” value [11, 20] of the same compound?
A: 100

Q: And the “Plant response rating, Dallisgrass” value [11, 21]?
A: 100

Q: And the “Plant response rating, Dallisgrass” value ([11]; Rate 250 g/ha)?
A: 100

Q: What about the “Plant response rating, Crabgrass” value [12, 15] of the same compound?
A: 0

Q: And the “Plant response rating, Crabgrass” value [12, 16]?
A: 9

Q: What about the “Crabgrass plant response rating (0 to 10 scale)” value ([12]; Preemergence, Rate 125 g/ha) of the same compound?
A: 10

Q: What about the “Crabgrass plant response rating” value ([12]; Preemergence, Rate 250 g/ha) of the same compound?
A: 10

Q: And the “Crabgrass plant response rating” value ([12]; Preemergence, Rate 500 g/ha)?
A: 10

Q: What about the “Crabgrass plant response rating” value ([12]; Rate 62 g/ha, Postemergence) of the same compound?
A: 0

Q: What about the “Plant response rating, Crabgrass” value [12, 17] of the same compound?
A: 7

Q: What about the “Plant response rating, Alexandergrass” value [13, 18] of the same compound?
A: 0

Q: What about the “Plant response rating, Alexandergrass” value [13, 19] of the same compound?
A: 0

Q: And the “Plant response rating, Alexandergrass” value [13, 20]?
A: 100

Q: And the “Plant response rating, Alexandergrass” value [13, 21]?
A: 90

Q: What about the “Plant response rating, Alexandergrass” value ([13]; Rate 250 g/ha) of the same compound?
A: 100

Q: What about the “Plant response rating, Green foxtail” value [14] of the same compound?
A: 100
